pIC50, pKi: −log10 of the molar value.

The target of the first test is T1, Itk (Homo sapiens, UniProt Q08881).
T1 sequence (Q08881 1-620): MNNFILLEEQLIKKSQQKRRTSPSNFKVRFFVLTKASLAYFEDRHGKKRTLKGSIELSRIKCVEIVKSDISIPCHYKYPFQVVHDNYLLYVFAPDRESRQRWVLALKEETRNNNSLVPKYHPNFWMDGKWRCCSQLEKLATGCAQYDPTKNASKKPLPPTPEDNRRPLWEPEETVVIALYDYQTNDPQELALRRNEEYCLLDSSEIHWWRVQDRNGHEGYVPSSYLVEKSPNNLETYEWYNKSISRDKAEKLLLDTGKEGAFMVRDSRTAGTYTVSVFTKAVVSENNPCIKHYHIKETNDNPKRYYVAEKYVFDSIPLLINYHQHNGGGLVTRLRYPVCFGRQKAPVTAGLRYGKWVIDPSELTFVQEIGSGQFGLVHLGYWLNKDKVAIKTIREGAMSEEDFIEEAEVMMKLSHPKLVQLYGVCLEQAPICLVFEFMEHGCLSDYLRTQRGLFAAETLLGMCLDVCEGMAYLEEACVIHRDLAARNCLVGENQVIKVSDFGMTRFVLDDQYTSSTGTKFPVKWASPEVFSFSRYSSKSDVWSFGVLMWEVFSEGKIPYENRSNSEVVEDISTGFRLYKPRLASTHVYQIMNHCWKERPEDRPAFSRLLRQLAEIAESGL
The experiment in a line: Itk inhibition assay: Alphascreen (Method B). Type of test: biochemical. Conditions: 100 μM ATP. As for the experimental part:
(§1) The compounds of the present invention were evaluated as inhibitors of human Itk kinase using either a radioactivity-based, spectrophotometric or alphascreen assay.
Assays were carried out in a mixture of 20 mM MOPS (pH 7.0), 10 mM MgCl2, 0.1% BSA and 1 mM DTT. Final substrate concentrations in the assay were 100 μM ATP (Sigma Chemicals) and 2 μM peptide (Biotinylated SAM68 Δ332-443). Assays were carried out at 25° C. and in the presence of 10 nM Itk. An assay stock buffer solution was prepared containing all of the reagents listed above, with the exception of ATP and the test compound of interest. 25 μL of the stock solution was placed in each well of a 96 well plate followed by 1 μL of DMSO containing serial dilutions of the test compound (typically starting from a final concentration of 15 μM) in duplicate (final DMSO concentration 2%). The plate was preincubated for 10 minutes at 25° C. and the reaction initiated by addition of 25 μL ATP (final concentration 100 μM). Background counts were determined by the addition of 5 μL 500 mM EDTA to control wells containing assay stock buffer and DMSO prior to initiation with ATP. The reaction was stopped after 30 minutes by diluting the reaction 225-fold into MOPS buffer (20 mM MOPS (pH 7.0), 1 mM DTT, 10 mM MgCl2, 0.1% BSA) containing 50 mM EDTA to bring the final concentration of peptide to 9 nM.
AlphaScreen™ reagents were prepared according to the manufacturers instructions (AlphaScreen™ phosphotyrosine (P-Tyr-100) assay kit, PerkinElmer catalogue number 6760620C). Under subdued lighting, 20 μL of AlphaScreen™ reagents were placed in each well of a white half area 96 well plate (Corning Inc.—COSTAR 3693) with 30 μL of the stopped, diluted kinase reactions. Plates were incubated in the dark for 60 minutes prior to reading on a Fusion Alpha plate reader (PerkinElmer).
After removing mean background values for all of the data points, Ki(app) data were calculated from non-linear regression analysis using the Prism software package (GraphPad Prism version 3.0cx for Macintosh, GraphPad Software, San Diego Calif., USA).
(In Alpha technology, singlet oxygen from a donor bead excites a nearby acceptor bead.)
By pKi is commonly meant the Ki on a negative log10 scale, so that one unit is a factor of ten. Higher therefore signals a low Ki. `NS(=O)(=O)c1cccc(Nc2ncc3c(n2)-c2sc(N4CCOCC4)nc2CC3)c1` [III-32] had a pKi of over 6.00.
`CCN(CC)c1nc2c(s1)-c1nc(Nc3cccc(S(N)(=O)=O)c3)ncc1CC2` [III-33] gave a negative logarithm of the Ki (pKi) of over 6.00.
Same read-out and setting: with `NS(=O)(=O)c1cccc(Nc2ncc3c(n2)-c2sc(N4CCCCC4)nc2CC3)c1` [III-34] the figure was over 6.00; with `CN1CCC(Nc2nc3c(s2)-c2nc(Nc4cccc(S(N)(=O)=O)c4)ncc2CC3)CC1` [III-35], over 6.00.
The same measure, in the same setting: the result for `NS(=O)(=O)c1cccc(Nc2ncc3c(n2)-c2sc(CO)nc2CC3)c1` [III-38] reads over 6.00; that for `CN1CCN(c2nc3c(s2)-c2nc(Nc4cccc(S(N)(=O)=O)c4)ncc2CC3)CC1` [III-39], over 6.00; that for `CN(C)/C=N/S(=O)(=O)c1cccc(Nc2ncc3c(n2)-c2sc(N4CCN(C)CC4)nc2CC3)c1` [III-40], over 6.00.
Same read-out and setting: with `Cc1nc2c(s1)CCc1cnc(Nc3cccc(S(N)(=O)=O)c3)nc1-2` [IV-4] the figure was over 6.00.

A further test concerns the target T1, Itk. The experiment in a line: Itk inhibition assay: radioactivity-based (Method A). It counts as biochemical. To be noted: 15 μM ATP, read-out: IC50 in the radioactive incorporation assay (Method A). As for the experimental part: as §1
Assays were carried out in a mixture of 100 mM HEPES (pH 7.5), 10 mM MgCl2, 25 mM NaCl, 0.01% BSA and 1 mM DTT. Final substrate concentrations were 15 μM [γ-^33P]ATP (400 μCi ^33P ATP/μmol ATP, Amersham Pharmacia Biotech/Sigma Chemicals) and 2 μM peptide (SAM68 protein Δ332-443). Assays were carried out at 25° C. in the presence of 30 nM Itk. An assay stock buffer solution was prepared containing all of the reagents listed above, with the exception of ATP and the test compound of interest. 50 μL of the stock solution was placed in a 96 well plate followed by addition of 1.5 μL of DMSO stock containing serial dilutions of the test compound (typically starting from a final concentration of 15 μM with 2-fold serial dilutions) in duplicate (final DMSO concentration 1.5%). The plate was pre-incubated for 10 minutes at 25° C. and the reaction initiated by addition of 50 μL [γ-^33P]ATP (final concentration 15 μM).
The reaction was stopped after 10 minutes by the addition of 50 μL of a TCA/ATP mixture (20% TCA, 0.4 mM ATP). A Unifilter GF/C 96 well plate (Perkin Elmer Life Sciences, Cat no. 6005174) was pretreated with 50 μL Milli Q water prior to the addition of the entire reaction mixture (150 μL). The plate was washed with 200 μL Milli Q water followed by 200 μL of a TCA/ATP mixture (5% TCA, 1 mM ATP). This wash cycle was repeated a further 2 times. After drying, 30 μL Optiphase ‘SuperMix’ liquid scintillation cocktail (Perkin Elmer) was added to the well prior to scintillation counting (1450 Microbeta Liquid Scintillation Counter, Wallac).
IC50 data were calculated from non-linear regression analysis of the initial rate data using the Prism software package (GraphPad Prism version 3.0cx for Macintosh, GraphPad Software, San Diego Calif., USA).
`NS(=O)(=O)c1cccc(Nc2ncc3c(n2)-c2cc(-c4ccccc4)sc2CC3)c1` [Compound I-1]: the pIC50 is over 6.00.
Still for that read-out and setting: the result for `COc1cccc(-c2cc3c(s2)CCc2cnc(Nc4cccc(S(N)(=O)=O)c4)nc2-3)c1` [Compound I-2] reads over 6.00.
On the same count and under the same terms, the result for `NS(=O)(=O)c1cccc(Nc2ncc3c(n2)-c2cc(-c4cccnc4)sc2CC3)c1` [Compound I-3] reads over 6.00; that for `NS(=O)(=O)c1cccc(Nc2ncc3c(n2)-c2cc(-c4cccc(C(=O)O)c4)sc2CC3)c1` [Compound I-4], over 6.00; that for `NS(=O)(=O)c1cccc(Nc2ncc3c(n2)-c2cc(-c4ccsc4)sc2CC3)c1` [Compound I-5], over 6.00.
The same measure, in the same setting: the result for `CC(=O)Nc1cccc(-c2cc3c(s2)CCc2cnc(Nc4cccc(S(N)(=O)=O)c4)nc2-3)c1` [Compound I-6] reads over 6.00; that for `NS(=O)(=O)c1cccc(Nc2ncc3c(n2)-c2cc(-c4ccccc4Cl)sc2CC3)c1` [Compound I-7], over 6.00.
As for `NS(=O)(=O)c1cccc(Nc2ncc3c(n2)-c2cc(-c4cccs4)sc2CC3)c1` [Compound I-8], the pIC50 was over 6.00.
Still for that read-out and setting: with `COc1ccccc1-c1cc2c(s1)CCc1cnc(Nc3cccc(S(N)(=O)=O)c3)nc1-2` [Compound I-9] the figure was over 6.00.
`Nc1cccc(-c2cc3c(s2)CCc2cnc(Nc4cccc(S(N)(=O)=O)c4)nc2-3)c1` [Compound I-10]: the pIC50 is over 6.00.
On the same count and under the same terms, with `COc1ccc(-c2cc3c(s2)CCc2cnc(Nc4cccc(S(N)(=O)=O)c4)nc2-3)cc1` [Compound I-11] the figure was over 6.00.
With `N#Cc1cccc(-c2cc3c(s2)CCc2cnc(Nc4cccc(S(N)(=O)=O)c4)nc2-3)c1` [Compound I-12], the pIC50 was over 6.00.
The same measure, in the same setting: the result for `NS(=O)(=O)c1cccc(Nc2ncc3c(n2)-c2cc(-c4cccc([N+](=O)[O-])c4)sc2CC3)c1` [Compound I-13] reads over 6.00.
The same measure, in the same setting: the result for `COc1cccc(OC)c1-c1cc2c(s1)CCc1cnc(Nc3cccc(S(N)(=O)=O)c3)nc1-2` [Compound I-14] reads over 6.00.
On the same count and under the same terms, the result for `NS(=O)(=O)c1cccc(Nc2ncc3c(n2)-c2cc(-c4cccc(Cl)c4)sc2CC3)c1` [Compound I-15] reads over 6.00.
For the compound `COc1cccc(-c2cc3c(s2)CCc2cnc(Nc4cccc(S(N)(=O)=O)c4)nc2-3)c1OC` [Compound I-17], the pIC50 is over 6.00.
Same read-out and setting: with `COc1cccc(-c2cc3c(s2)CCc2cnc(Nc4ccc(S(N)(=O)=O)cc4)nc2-3)c1` [Compound I-18] the figure was over 6.00; with `COc1cccc(-c2cc3c(s2)CCc2cnc(Nc4cccc(O)c4)nc2-3)c1` [Compound I-19], over 6.00.
The same measure, in the same setting: the result for `COc1ccc(OC)c(-c2cc3c(s2)CCc2cnc(Nc4cccc(S(N)(=O)=O)c4)nc2-3)c1` [Compound I-20] reads over 6.00.
Regarding `NS(=O)(=O)c1cccc(Nc2ncc3c(n2)-c2ccsc2CC3)c1` [Compound I-21], the pIC50 was over 6.00.
As to `COc1cccc(-c2cc3c(s2)CCc2cnc(Nc4ccc(O)cc4)nc2-3)c1` [Compound I-23], the pIC50 is over 6.00.
Consider `COc1cccc(-c2cc3c(s2)CCc2cnc(Nc4cccc(S(C)(=O)=O)c4)nc2-3)c1` [Compound I-24], for which the pIC50 is over 6.00.
Same read-out and setting: with `COc1cccc(-c2cc3c(s2)CCc2cnc(Nc4ccc(S(C)(=O)=O)cc4)nc2-3)c1` [Compound I-25] the figure was over 6.00.
On the same count and under the same terms, the result for `NS(=O)(=O)c1cccc(Nc2ncc3c(n2)-c2cc(-c4ccccc4O)sc2CC3)c1` [Compound I-27] reads over 6.00; that for `NS(=O)(=O)c1cccc(Nc2ncc3c(n2)-c2cc(-c4ccccc4OC(F)(F)F)sc2CC3)c1` [Compound I-28], over 6.00; that for `NS(=O)(=O)c1cccc(Nc2ncc3c(n2)-c2cc(-c4ccccc4CO)sc2CC3)c1` [Compound I-29], over 6.00.

These data come from patent US7700609B2, “Compositions useful as inhibitors of protein kinases” (Vertex Pharmaceuticals Incorporated, priority 2003, dated 2010).
